The results in this text go back to ChEMBL document CHEMBL1201862, “PubChem BioAssay data set” (2004).

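Growth conditions: 96-well plates. Treatment: test compound, 48 hours, 5 concentrations. Analysis: linear interpolation between bracketing concentrations; unreached endpoints set to highest concentration. At the GI50, growth is halved.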 Calls of active or inactive are those of the source. Cut-off read from the data, not from the text of the source: active = GI50 up to about 1.1 µM and inactive = higher.

Test systems include 786-0; A549; COLO 205; EKVX; K562; KM12; MDA-MB-231; MDA-MB-435; MDA-N; NCI-H522; NCI/ADR-RES; OVCAR-8; SF-268; SF-295; SK-MEL-28; SK-MEL-2; SK-OV-3; TK-10; HOP-92; SF-539.
What all share (assay): growth of human tumour cells (NCI), 48 h

As for `CC1CN(C)c2ccccc2N=C1NN` (stereo not drawn), the GI50 in the assay with 786-0 is > 100 µM (inactive); in the assay with A549, > 100 µM (inactive); with COLO 205, > 100 µM (inactive); in the assay on EKVX it was > 100 µM (inactive); in the assay with K562 it was 88.3 µM (inactive); in the assay on KM12, > 100 µM (inactive). Moreover, the GI50 with MDA-MB-231, in the assay with MDA-MB-435, with MDA-N, with NCI-H522, in the assay on NCI/ADR-RES and in the assay on OVCAR-8 was > 100 µM (inactive) throughout. In addition, the GI50 with SF-268, in the assay on SF-295, with SK-MEL-28, with SK-MEL-2, with SK-OV-3 and with TK-10 was > 100 µM (inactive) each time.

For `COc1ccc(OC)c(C2CCCc3c2cnc2nc(N)nc(N)c32)c1` (stereo not drawn), the GI50 was < 0.01 µM (active) with 786-0; < 0.01 µM (active) in the assay with A549; 0.352 µM (active) with COLO 205; > 100 µM (inactive) in the assay with EKVX; 0.863 µM (active) with HOP-92; < 0.01 µM (active) with K562. Besides, the GI50 in the assay on KM12 is 0.0716 µM (active); with MDA-MB-231, > 100 µM (inactive); with MDA-MB-435 it was < 0.01 µM (active); in the assay with MDA-N it was < 0.01 µM (active); in the assay on NCI-H522, < 0.0392 µM (active); with NCI/ADR-RES, 1.04 µM (active). Moreover, the GI50 with OVCAR-8 was < 0.01 µM (active); in the assay with SF-295, < 0.0143 µM (active); with SF-539 it was < 0.0119 µM (active); in the assay with SK-MEL-28, > 100 µM (inactive); in the assay with SK-MEL-2, > 100 µM (inactive); with TK-10, 0.0217 µM (active).

With `Cn1c(=O)sc2cc(C(=S)N3CCC(Cc4ccccc4)CC3)ccc21`, the GI50 with 786-0 was > 100 µM (inactive); in the assay with COLO 205 it was 83.2 µM (inactive); with EKVX it was 9.42 µM (inactive); with K562 it was 34.9 µM (inactive); in the assay with KM12, 34.7 µM (inactive); with MDA-MB-231, > 100 µM (inactive). The GI50 with MDA-MB-435 was 27.5 µM (inactive); in the assay with MDA-N, 72.1 µM (inactive); in the assay with NCI/ADR-RES it was 21.4 µM (inactive); in the assay with OVCAR-8 it was 20.1 µM (inactive); in the assay on SF-268, 28.7 µM (inactive); in the assay on SF-295, 27.3 µM (inactive). Also, the GI50 in the assay with SF-539 was > 100 µM (inactive); in the assay on SK-MEL-28, 46.6 µM (inactive); in the assay on SK-MEL-2, > 100 µM (inactive); in the assay on SK-OV-3 it was 58.5 µM (inactive); with TK-10, > 100 µM (inactive).

As for `CC1=NOC2(C1)/C(=N/O)CCC/C2=N\O` (stereo not drawn), the GI50 in the assay with 786-0, with A549, in the assay with COLO 205, with EKVX, in the assay on K562 and with KM12 was > 100 µM (inactive) in each case. Moreover, the GI50 in the assay with MDA-MB-231, in the assay on MDA-MB-435, with MDA-N, in the assay with NCI-H522, with NCI/ADR-RES and with OVCAR-8 was > 100 µM (inactive) throughout. In addition, the GI50 in the assay with SF-268, in the assay with SF-295, in the assay on SF-539, with SK-MEL-28, in the assay on SK-MEL-2 and in the assay with SK-OV-3 was > 100 µM (inactive) in each case. In the assay on TK-10, the GI50 was > 100 µM (inactive).

In the case of `CC(CO)(CBr)COC(=O)c1cc(Br)c(N)c(Br)c1` (stereo not drawn), the GI50 is 50.1 µM (inactive) in the assay on 786-0; > 100 µM (inactive) in the assay on A549; > 100 µM (inactive) in the assay with COLO 205; 37.4 µM (inactive) in the assay on EKVX; 20.4 µM (inactive) in the assay on HOP-92; > 100 µM (inactive) in the assay with K562. The GI50 is > 100 µM (inactive) in the assay on KM12; 37.1 µM (inactive) in the assay on MDA-MB-231; 98.9 µM (inactive) in the assay on MDA-MB-435; 59.7 µM (inactive) in the assay with MDA-N; > 100 µM (inactive) with NCI/ADR-RES; > 100 µM (inactive) in the assay on OVCAR-8. Moreover, the GI50 in the assay with SF-268 was 29.3 µM (inactive); in the assay on SF-295, 37.4 µM (inactive); in the assay on SF-539, > 100 µM (inactive); in the assay with SK-MEL-28, > 100 µM (inactive); in the assay on SK-MEL-2 it was > 100 µM (inactive); with SK-OV-3 it was 83.9 µM (inactive). In the assay with TK-10, the GI50 was 43 µM (inactive).

Turning to `CC(C)[C@H](O)C(=O)N[C@H]1Cc2ccc3c(c2)[C@]24C5=C(N=C(O5)[C@H](C(C)C)NC1=O)c1nc(Cl)c(o1)-c1c(Cl)[nH]c5cccc(c15)-c1cccc2c1N[C@H]4O3`, the GI50 is 0.00535 µM (active) with 786-0; 0.0148 µM (active) in the assay on A549; 0.224 µM (active) in the assay with EKVX; 0.00693 µM (active) in the assay on HOP-92; 0.00427 µM (active) in the assay with K562; 0.00607 µM (active) with KM12. For the same molecule, the GI50 in the assay with MDA-MB-231 is 0.015 µM (active); in the assay on MDA-N it was 0.00162 µM (active); in the assay on NCI-H522, 0.0022 µM (active); with NCI/ADR-RES, 0.257 µM (active); with SF-268, 0.00513 µM (active); in the assay on SF-295 it was 0.0167 µM (active). In addition, the GI50 in the assay on SF-539 was 0.00403 µM (active); in the assay with SK-MEL-28, 0.00718 µM (active); in the assay on SK-OV-3, 0.001 µM (active); with TK-10, 0.0818 µM (active).

With `CSc1[nH]nc(N)c1C(=O)Nc1ccccc1`, the GI50 in the assay with 786-0, with A549, in the assay with COLO 205, in the assay on EKVX, in the assay on K562 and in the assay with KM12 was > 100 µM (inactive) each time. For the same molecule, the GI50 is > 100 µM (inactive) in the assay with MDA-MB-231; > 100 µM (inactive) with MDA-MB-435; > 100 µM (inactive) with MDA-N; 52.4 µM (inactive) in the assay with NCI-H522; > 100 µM (inactive) with NCI/ADR-RES; > 100 µM (inactive) in the assay with OVCAR-8. The GI50 in the assay with SF-268, in the assay with SF-539, in the assay with SK-MEL-28, with SK-MEL-2, in the assay with SK-OV-3 and with TK-10 was > 100 µM (inactive) throughout.

As to `COC(=O)/C=C(\S/C(=C(/c1ccccc1)n1cc(C(=O)OC)c(C(=O)OC)n1)c1ccccc1)C(=O)OC`, the GI50 in the assay on 786-0 was 4.79 µM (inactive); in the assay on A549, 23.9 µM (inactive); with COLO 205 it was 1.74 µM (inactive); with EKVX it was 18.2 µM (inactive); in the assay with K562, 3.54 µM (inactive); in the assay with KM12 it was 54.6 µM (inactive). The GI50 with MDA-MB-231 was 22 µM (inactive); in the assay with MDA-MB-435, 15.8 µM (inactive); in the assay with MDA-N, 17.1 µM (inactive); with NCI/ADR-RES it was 28.4 µM (inactive); in the assay on OVCAR-8 it was 2 µM (inactive); with SF-268, 16.1 µM (inactive). Moreover, the GI50 in the assay on SF-295 is 53.8 µM (inactive); in the assay on SF-539 it was 15.8 µM (inactive); with SK-MEL-28 it was 20.7 µM (inactive); in the assay with SK-MEL-2 it was 14.9 µM (inactive); in the assay on SK-OV-3, > 100 µM (inactive); in the assay on TK-10, 2.86 µM (inactive).

In the case of `CN(C)CCCN1c2ccccc2CCc2ccc([N+](=O)[O-])cc21`, the GI50 is 33 µM (inactive) with 786-0; 34.6 µM (inactive) in the assay on A549; 13.6 µM (inactive) in the assay on COLO 205; 69.3 µM (inactive) in the assay with EKVX; 30.3 µM (inactive) in the assay with K562; 18.1 µM (inactive) with KM12. Further, the GI50 is 39.2 µM (inactive) with MDA-MB-231; 17.9 µM (inactive) in the assay on MDA-MB-435; 18.5 µM (inactive) in the assay with MDA-N; 17.5 µM (inactive) in the assay with NCI-H522; 19.1 µM (inactive) in the assay on NCI/ADR-RES; 29.6 µM (inactive) in the assay on OVCAR-8. Also, the GI50 is 29.6 µM (inactive) in the assay on SF-268; 17.9 µM (inactive) with SF-295; 25.5 µM (inactive) in the assay on SK-MEL-28; 20.3 µM (inactive) in the assay on SK-MEL-2; 37.2 µM (inactive) in the assay on SK-OV-3; 18.7 µM (inactive) in the assay with TK-10.

`CNc1nnc(CCCCCCCCc2nnc(NC)o2)o1`: the GI50 is 21.1 µM (inactive) in the assay with 786-0; > 100 µM (inactive) in the assay with A549; > 100 µM (inactive) with COLO 205; > 100 µM (inactive) in the assay on EKVX; > 100 µM (inactive) in the assay on HOP-92; 31.9 µM (inactive) in the assay with K562. Moreover, the GI50 was > 100 µM (inactive) with KM12; > 100 µM (inactive) with MDA-MB-231; 63.8 µM (inactive) in the assay on MDA-MB-435; > 100 µM (inactive) in the assay with MDA-N; > 100 µM (inactive) in the assay on NCI/ADR-RES; 34.8 µM (inactive) with OVCAR-8. Moreover, the GI50 was 75.2 µM (inactive) with SF-295; > 100 µM (inactive) with SF-539; > 100 µM (inactive) in the assay on SK-MEL-28; > 100 µM (inactive) in the assay on SK-MEL-2; > 100 µM (inactive) with SK-OV-3; > 100 µM (inactive) with TK-10.

In the case of `Cn1c(=O)c2[nH]c(-n3nc(-c4ccccc4)cc3N)nc2n(C)c1=O`, the GI50 was 6.18 µM (inactive) with 786-0; 5.78 µM (inactive) with A549; 7.05 µM (inactive) with COLO 205; 5.42 µM (inactive) in the assay on EKVX; 6.46 µM (inactive) in the assay on HOP-92; 6.46 µM (inactive) with K562. Further, the GI50 is 6.58 µM (inactive) in the assay on KM12; 10.6 µM (inactive) in the assay with MDA-MB-231; 18 µM (inactive) in the assay on MDA-MB-435; 11.7 µM (inactive) in the assay on MDA-N; 2.4 µM (inactive) in the assay on NCI/ADR-RES; 4.85 µM (inactive) in the assay with OVCAR-8. The GI50 is 11.3 µM (inactive) in the assay with SF-268; 4.92 µM (inactive) in the assay with SF-295; 5.08 µM (inactive) in the assay with SF-539; 11 µM (inactive) in the assay with SK-MEL-28; 14.6 µM (inactive) with SK-MEL-2; 4.04 µM (inactive) with SK-OV-3. In addition, the GI50 in the assay with TK-10 is 12.4 µM (inactive).
